Source: ChEMBL document CHEMBL1201862, “PubChem BioAssay data set” (2004)
“And” between values parts separate entries of the source, which are not always exact repeats. Identical values can stand only once.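 Protocol summary: plate cells (96-well), add compound at 5 concentrations, incubate 48 h, interpolate endpoints linearly. GI50 is the concentration that inhibits growth by half.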 The source made the active and inactive calls. Cut-off read from the data, not from the text of the source: active = GI50 up to about 1.1 µM and inactive = higher.

How the values were obtained:
Assay in all cases: DTP human tumour cell line panel, 48 h
CAKI-1 = tested on: CAKI-1
COLO 205 = tested on: COLO 205
EKVX = tested on: EKVX
HCC 2998 = tested on: HCC 2998
HCT-15 = tested on: HCT-15
HOP-62 = tested on: HOP-62
HOP-92 = tested on: HOP-92
HT-29 = tested on: HT-29
IGROV-1 = tested on: IGROV-1
KM12 = tested on: KM12
M14 = tested on: M14
MDA-N = tested on: MDA-N
OVCAR-8 = tested on: OVCAR-8
RPMI-8226 = tested on: RPMI-8226
RXF 393 = tested on: RXF 393
SF-295 = tested on: SF-295
SK-MEL-2 = tested on: SK-MEL-2
SK-MEL-5 = tested on: SK-MEL-5
T47D = tested on: T47D
TK-10 = tested on: TK-10

| SMILES | GI50 (CAKI-1) | GI50 (COLO 205) | GI50 (EKVX) | GI50 (HCC 2998) | GI50 (HCT-15) | GI50 (HOP-62) | GI50 (HOP-92) | GI50 (HT-29) | GI50 (IGROV-1) | GI50 (KM12) | GI50 (M14) | GI50 (MDA-N) | GI50 (OVCAR-8) | GI50 (RPMI-8226) | GI50 (RXF 393) | GI50 (SF-295) | GI50 (SK-MEL-2) | GI50 (SK-MEL-5) | GI50 (T47D) | GI50 (TK-10) |
| --- | --- | --- | --- | --- | --- | --- | --- | --- | --- | --- | --- | --- | --- | --- | --- | --- | --- | --- | --- | --- |
| COC(=O)[C@H](Cc1c[nH]c2ccccc12)NP(=O)(OCCC#N)OCC1OC(n2cc(C)c(=O)[nH]c2=O)CC1N=[N+]=[N-] (stereo not given in full) | > 100 µM (inactive) | > 100 µM (inactive) | > 100 µM (inactive) | > 100 µM (inactive) | > 100 µM | > 100 µM (inactive) | > 100 µM (inactive) | > 100 µM (inactive) | > 100 µM (inactive) | > 100 µM (inactive) | > 100 µM (inactive) | > 100 µM (inactive) | > 100 µM (inactive) | > 100 µM (inactive) | > 100 µM (inactive) | > 100 µM (inactive) | > 100 µM (inactive) | > 100 µM (inactive) | > 100 µM (inactive) | > 100 µM (inactive) |
| CC(CCC(=O)O)C(=O)O (stereo not given) | > 100 µM (inactive) | > 100 µM (inactive) | > 100 µM (inactive) | > 100 µM (inactive) | > 100 µM | > 100 µM (inactive) | > 100 µM (inactive) | > 100 µM (inactive) | > 100 µM (inactive) | > 100 µM (inactive) | > 100 µM (inactive) | > 100 µM (inactive) | > 100 µM (inactive) | > 100 µM (inactive) | > 100 µM (inactive) | > 100 µM (inactive) | > 100 µM (inactive) | > 100 µM (inactive) | > 100 µM (inactive) | > 100 µM (inactive) |
| Cc1ccc(C2=C(C#N)C(=O)N3CCN=C3S2)cc1 | > 100 µM (inactive) | > 100 µM (inactive) | > 100 µM (inactive) | > 100 µM (inactive) | > 100 µM | – | > 100 µM (inactive) | 57.1 µM (inactive) | > 100 µM (inactive) | > 100 µM (inactive) | > 100 µM (inactive) | > 100 µM (inactive) | > 100 µM (inactive) | – | > 100 µM (inactive) | > 100 µM (inactive) | > 100 µM (inactive) | > 100 µM (inactive) | > 100 µM (inactive) | > 100 µM (inactive) |
| COC(=O)C1OC(O[C@H]2CC[C@]3(C)[C@H]4CC=C5[C@@H]6CC(C)(C)CC[C@]6(C(=O)OC6OCC(O)C(O)C6OC6OC(C)C(OC7OCC(O)C(O)C7O)C(O)C6O)CC[C@@]5(C)[C@]4(C)CC[C@H]3C2(C)C)C(O)C(O)C1O (stereo not given in full) | 12.9 µM (inactive) and 15.5 µM (inactive) | 13.1 µM (inactive) and 16.9 µM (inactive) | 17.1 µM (inactive) | 11.9 µM (inactive) and 14.2 µM (inactive) | 26.9 µM and 28.8 µM | 17.9 µM (inactive) and 18.4 µM (inactive) | 16.4 µM (inactive) and 19.9 µM (inactive) | 15.8 µM (inactive) and 16 µM (inactive) | 24.8 µM (inactive) and 45.8 µM (inactive) | 15.6 µM (inactive) and 16.2 µM (inactive) | 15.3 µM (inactive) and 18.2 µM (inactive) | 18.5 µM (inactive) and 15.9 µM (inactive) | 21.4 µM (inactive) and 15.2 µM (inactive) | 23.9 µM (inactive) and 18.8 µM (inactive) | 21.1 µM (inactive) and 19.5 µM (inactive) | 18.2 µM (inactive) and 17.4 µM (inactive) | 19.7 µM (inactive) and 17.6 µM (inactive) | 17.9 µM (inactive) and 17.8 µM (inactive) | 28.2 µM (inactive) and 18.2 µM (inactive) | – |
| CC1OC(O[C@H]2CC[C@]3(C)[C@H]4CC=C5[C@@H]6[C@@H](C)[C@H](C)CC[C@]6(C(=O)OC6OC(CO)C(O)C(O)C6O)CC[C@@]5(C(=O)O)[C@]4(C)CC[C@H]3C2(C)C)C(O)C(O)C1O (stereo not given in full) | > 100 µM (inactive) | > 100 µM (inactive) | – | > 100 µM (inactive) | > 100 µM | > 100 µM (inactive) | > 100 µM (inactive) | – | – | > 100 µM (inactive) | > 100 µM (inactive) | > 100 µM (inactive) | > 100 µM (inactive) | – | > 100 µM (inactive) | > 100 µM (inactive) | > 100 µM (inactive) | > 100 µM (inactive) | > 100 µM (inactive) | > 100 µM (inactive) |
| CC(C)(C)OC(=O)NC(CCC(=O)OCc1ccccc1)C(=O)NCCCO (stereo not given) | > 100 µM (inactive) | – | > 100 µM (inactive) | > 100 µM (inactive) | > 100 µM | > 100 µM (inactive) | > 100 µM (inactive) | > 100 µM (inactive) | > 100 µM (inactive) | > 100 µM (inactive) | > 100 µM (inactive) | > 100 µM (inactive) | > 100 µM (inactive) | > 100 µM (inactive) | > 100 µM (inactive) | – | > 100 µM (inactive) | > 100 µM (inactive) | > 100 µM (inactive) | > 100 µM (inactive) |
| O=C(O)c1ccccc1/C=N/N=C1NCCCCN1 | – | > 100 µM (inactive) | > 100 µM (inactive) | > 100 µM (inactive) | > 100 µM | > 100 µM (inactive) | > 100 µM (inactive) | > 100 µM (inactive) | > 100 µM (inactive) | > 100 µM (inactive) | > 100 µM (inactive) | > 100 µM (inactive) | > 100 µM (inactive) | > 100 µM (inactive) | > 100 µM (inactive) | > 100 µM (inactive) | > 100 µM (inactive) | > 100 µM (inactive) | > 100 µM (inactive) | > 100 µM (inactive) |
